# Assay results: US8084593B2, “Polynucleotide encoding a TRIM-Cyp polypeptide, compositions thereof, and methods of using same” (The Trustees of Columbia University in the City of New York, priority 2004, dated 2011)
# Entries after “also recorded” stand apart in the source; their conditions may differ.
# Assays:
# N-MLV [1] = test: N-MLV / B-MLV GFP vector infection of transduced TE671 cells, FACS; type: cell-based, murine leukemia virus; settings: for N-MLV replication defect (N-tropic restriction by endogenous TRIM5αhu) in cells expressing the construct: TE671 cells, control cells: B-MLV ˜200-fold more infectious than N-MLV
# Experimental: (§1) FIGS. 7a-7c. […] (a) TE671 cells expressing the indicated LPCX derived constructs were infected with GFP-expressing B-MLV and N-MLV vectors at multiple doses. Cells were infected in the presence or absence of As2O3 (3 μM). Two days later, the percentage of infected cells was determined by FACS. (b) OMK cells were transduced with MIG (Vect) or with MIG-TRIM5αhu (T5hu) and challenged with DsRed-expressing N-MLV or B-MLV vectors. Two days later, the percentage of infected cells was determined by FACS.
# FIGS. 8a-8c. Effect of TRIMStop on TRIM5αhu antiviral activity. (a) TE671-Vector (Vector) cells and TE671-TRIMStop cells were infected with HIV-1NL-GFP (left panel) or with N- and B-MLV (right panel). Two days later, the percentage of infected (GFP expressing) cells was determined by FACS. (b) Total RNA was prepared from TE671-Vector (Vect), TE671-TRIMCyp (TC), and TE671-TRIMStop (TS), and RT-PCR was used to detect endogenous TRIM5α or TRIMCyp/TRIMStop. RT was performed in the presence (+) or absence (−) of reverse transcriptase. (c) 293T cells were transfected with LPCX (Vect), LPCX-TRIMCyp (TC), or LPCX-TRIMStop (TS), and Western blotting was performed using an antibody specific to TRIM5.
# Next, we analyzed MLV replication in TE671-TRIM5αrh, TE671-TRIMCyp, and the control TE671-vector cells.
# HIV-1 [2] = type: cell-based, human immunodeficiency virus type 1
# Experimental: (§2) HIV-DsRed and HIV-GFP vectors were produced in 293T cells by co-transfection of CSGW or CSRW with p8.9NΔSB (wild type or G89V mutant) and pMD.G, also at 5:5:1 ratio. HIV/Env-/GFP and SIV/Env-/GFP viruses were produced by cotransfection of the wild type or G89V HIV/Env-/GFP plasmids with pMD.G at a 10:1 ratio. All vectors and viruses were harvested 48 h post-transfection, filtered (0.45-μm filter, Pall Acrodisc), aliquoted, and stored at −80° C. Stocks were normalized by reverse transcriptase activity or p24 ELISA (8).
# (§3) Infection assays—Cells were assayed by flow cytometry 48 to 72 h post-infection to determine the percentage of cells that were GFP-positive (FL-1) or DsRed-positive (FL-2). Cells transduced with pMIG vectors and infected with HIV-DsRed were gated to limit the analysis to GFP-positive cells.
# CAp30 from N-MLV virions = test: CA pull-out of N-MLV virions with GST-TRIM5 fusions; type: binding, murine leukemia virus; settings: GST fusion produced in 293T cells, purified virions
# N-MLV [3] = test: N-MLV DsRed vector challenge of OMK cells transduced with MIG-TRIM5αhu; type: cell-based, murine leukemia virus
# Experimental: as §1
# (§4) We also performed the reciprocal experiment, transducing owl monkey OMK cells with TRIM5αhu and challenging them with MLV or HIV-1.
# B-MLV = B-MLV DsRed vector challenge of OMK cells transduced with MIG-TRIM5αhu; type: cell-based, murine leukemia virus
# Experimental: as §1, §4
# HIV-1 [4] = test: HIV-1-derived CSRW vector challenge of OMK/MIG and OMK/MIG-T5hu cells; type: cell-based, human immunodeficiency virus type 1; settings: OMK cells expressing TRIM5αhu
# Experimental: as §1, §4
# CAp30 from B-MLV virions = test: CA pull-out of B-MLV virions with GST-TRIM5 fusions; type: binding, murine leukemia virus; settings: GST fusion produced in 293T cells, purified virions
# HIV-1NL-GFP = type: cell-based, human immunodeficiency virus type 1; settings: for HIV-1 cDNA synthesis (Southern blot) / HIV-1 infection (GFP-positive cells by FACS): TE671 cells; for HIV-1 cDNA synthesis (Southern blot): 16 h after infection; for HIV-1 infection (GFP-positive cells by FACS): LPCX vectors
# Experimental: FIG. 6. […] LPCX-based retroviral vectors were used to transduce the indicated genes into human TE671 cells. Vect, Cyp, TS, TC and T5rh designate, respectively, Vector control, owl monkey CypA, TRIMStop, TRIMCyp, and TRIM5αrh. […] One twentieth of the cells were maintained in culture for another day and used to determine the percentage of GFP-positive cells by FACS (bottom of the figure). Total DNA was extracted from the remainder of the cells 16 h after infection, and 5 μg of each DNA sample was analyzed by Southern blotting. The positions of the linear, 1-LTR, and 2-LTR HIV-1 cDNA species are indicated on the left. “Total” DNA refers to a band specific to all HIV-1 cDNA forms, including the integrated DNA.
# We transduced human rhabdomyosarcoma TE671 cells (45) with previously described LPCX vectors (reference 5, see also Example 1) bearing cDNAs for TRIM5αrh, TRIMCyp, or owl monkey CypA. Cells were also transduced with a vector expressing TRIMStop, a truncated version of TRIMCyp lacking the CypA domain (see Example 1). Pools of transduced cells were selected in puromycin and then assessed for susceptibility to infection with HIV-1NL-GFP (32). […] We monitored the percentage of infected (GFP-expressing) cells by fluorescence-activated cell sorting (FACS) and the synthesis of viral cDNA in the infected cells using a Southern blot designed to detect full-length, linear viral cDNA and circular viral cDNAs that form in the nucleus (31, 32, 47).
# HIV-1 [5] = settings: OMKMH-CypA-147 cells, pMIG vector, HIV-1 DsRed vector
# Experimental: (§5) Generation of stable cell lines—To generate stable RNAi knockdown lines, 1 ml of pMH vector-containing media was pelleted onto OMK cells (1,200 g for 72 min) in 12-well plates. Infection was repeated 24 h later. ntTRIMCyp, TRIMStop and ntCypAOM cDNAs were transduced with either pMIG (OMK and HeLa cells) or pLPCX (TE671 and Rat2 cells). pLPCX-infected cells were selected in 1 μg ml^−1 puromycin.
# as §3
# HIV-1 [6] = system: HIV-1
# Experimental: (§6) FIGS. 3a-3e. […] WT, wild type. HeLa cells (d) or Rat2 cells (e) transduced with the indicated cDNAs were infected with HIV-1.
# as §2, §5, §3
# SIVMAC239 = SIVMAC239 infection of TE671 cells transduced with cDNAs; type: cell-based, simian immunodeficiency virus; settings: stable TE671 cell lines
# Experimental: as §6, §2, §5, §3
# HIV-1 [7] = system: HIV-1; remark: listed apart in the source
# Experimental: as §6, §5, §3
# [8] = system: TRIM5 orthologues (TRIMCyp, TRIM5αrh, TRIM5αhu, TRIMStop, huTRIMStop); test: Yeast two-hybrid system, β-galactosidase activity: TRIM5 orthologues; type: binding; settings: LexA / B42 fusions, S. cerevisiae EGY48
# Source text: (§7) FIGS. 9A-9B. TRIMCyp and TRIMStop both bind TRIM5αhu. (A) Yeast two-hybrid system. […] (B) Binding in mammalian cells. TRIM5αhu was fused to GST.
# TRIM5αhu = target: T1, TRIM5αhu (Homo sapiens, UniProt Q9C035); test: GST pull down from cotransfected 293T cells, Western blotting; type: binding; settings: glutathione-Sepharose beads, anti-TRIM5 Western blot
# T1 construct: expressed in transfected cells; host or cells: 293T
# Source text: as §7
# To investigate TRIM5:TRIMCyp heterodimerization in mammalian cells, we expressed TRIM5αhu in fusion with glutathione-S-transferase (GST) and transfected 293T cells with either GST or GST-TRIM5αhu. These cells were cotransfected with the LPCX plasmid constructs described above that express TRIMCyp or TRIMStop. […] The blot was also probed with an anti-cyclophilin A antibody, confirming the identity of TRIMCyp (FIG. 9b).
# HIV-1 CA = HIV-1 CA (Human immunodeficiency virus type 1 group M subtype B, UniProt P12493); settings: detergent-prepared virion cores, affinity chromatography
# Experimental: Retrovirion cores can be liberated from the viral membrane envelope by detergent (54). HIV-1 virion cores were prepared with several different detergents and mixed with recombinant TRIM5 orthologues.
# HIV-1 clone NL4-3 = test: Spreading HIV-1 NL4-3 infection of transduced Jurkat T cells, supernatant reverse transcriptase activity; type: cell-based, human immunodeficiency virus type 1; settings: Jurkat T cells transduced with owl monkey TRIMCyp cDNA
# Source text: FIG. 13. […] Retroviral vectors were used to transduce human Jurkat T cells with the cDNA encoding owl monkey TRIMCyp. Control cells were transduced with vector lacking the cDNA. Cells were challenged with full infectious HIV-1 clone NL4-3. Supernatant was collected and assessed for viral reverse transcriptase activity (a quantitative measure of the amount of virus produced in the culture).
# HIV-1 Gag = HIV-1 Gag (Human immunodeficiency virus type 1 group M subtype B, UniProt P12493); settings: LexA / B42 fusions, S. cerevisiae EGY48
# Experimental: (A) Yeast two-hybrid system. […] Pairs of fused LexA and B42 expression plasmids were transformed into Saccharomyces cerevisiae strain EGY48. For each transformant, β-galactosidase activity for three colonies is reported in Miller units with the standard deviation. (B) Binding in mammalian cells.
# Fusions of these proteins with LexA and/or B42 were constructed, and the interactions between fusion proteins were analyzed using a previously described system (37) in which reporter gene β-galactosidase activity was assessed with a quantitative assay (43).
# T1 sequence (Q9C035 whole entry): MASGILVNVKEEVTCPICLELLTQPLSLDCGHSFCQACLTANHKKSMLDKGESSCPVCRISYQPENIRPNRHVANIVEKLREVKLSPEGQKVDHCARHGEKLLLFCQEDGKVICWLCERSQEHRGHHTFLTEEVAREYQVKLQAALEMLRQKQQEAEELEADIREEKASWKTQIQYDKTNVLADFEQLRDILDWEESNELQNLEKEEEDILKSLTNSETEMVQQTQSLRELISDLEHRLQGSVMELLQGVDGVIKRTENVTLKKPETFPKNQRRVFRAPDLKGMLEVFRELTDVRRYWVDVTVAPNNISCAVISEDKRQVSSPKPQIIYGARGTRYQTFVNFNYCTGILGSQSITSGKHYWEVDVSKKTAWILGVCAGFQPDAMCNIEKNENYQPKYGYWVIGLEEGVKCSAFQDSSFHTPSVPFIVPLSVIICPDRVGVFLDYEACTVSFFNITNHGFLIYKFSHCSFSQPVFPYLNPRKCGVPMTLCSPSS
molecule,measurement,setting,value
O=[As]O[As]=O (centres unmarked) [As2O3],enhancement of infectivity in cells expressing TRIM5αrh or TRIMCyp,"N-MLV [1]; TE671-TRIM5αrh and TE671-TRIMCyp, As2O3 3 μM",no longer enhanced infectivity
same,increase of N-MLV infectivity,"N-MLV [1]; control TE671 cells, As2O3 3 μM",≥ 10 fold
C/C=C/C[C@@H](C)[C@@H](O)[C@H]1C(=O)N[C@@H](CC)C(=O)N(C)CC(=O)N(C)[C@@H]([C@@H](C)CC)C(=O)N[C@@H](C(C)C)C(=O)N(C)[C@@H](CC(C)C)C(=O)N[C@@H](C)C(=O)N[C@H](C)C(=O)N(C)[C@@H](CC(C)C)C(=O)N(C)[C@@H](CC(C)C)C(=O)N(C)[C@@H](C(C)C)C(=O)N1C [MeIle^4-CsA],HIV-1 infection of OMK cells on drug treatment of target cells,HIV-1 [2],permits HIV-1 to infect OMK cells at an efficiency similar to that of SIV
TRIM5 lacking the SPRY domain: GST fusion with human TRIM5 lacking the SPRY domain,association of CAp30 from N-MLV virions,CAp30 from N-MLV virions,did not associate
TRIM5αhu: human TRIM5α; in Example 3 produced as a GST-fusion protein in 293T cells,restrictive effect on the replication of N-MLV,N-MLV [3],approximately twofold
same,effect on B-MLV,B-MLV,no effect
same,restriction of HIV-1 compared with control cells,HIV-1 [4],similar
same,association of CAp30 from N-MLV virions,CAp30 from N-MLV virions,associated
same,association of CAp30 from B-MLV virions,CAp30 from B-MLV virions,did not associate
TRIM5αrh: alpha isoform of rhesus macaque TRIM5 [reference compound],HIV-1 cDNA synthesis (Southern blot),HIV-1NL-GFP,inhibited HIV-1 cDNA synthesis
same,HIV-1 infection (GFP-positive cells by FACS),HIV-1NL-GFP,inhibited HIV-1 infection of TE671 cells
same,N-MLV replication defect (N-tropic restriction by endogenous TRIM5αhu) in cells expressing the construct,N-MLV [1],about 20 fold
"TRIMCyp: owl monkey TRIM5-CypA fusion protein, 54-kD, SEQ ID NO:4; ntTRIMCyp is its RNAi-resistant cDNA with silent mutations",HIV-1 restriction after transduction of RNAi-resistant cDNA,HIV-1 [5],restricted HIV-1
same,HIV-1 infection / titre in cells expressing the cDNA,HIV-1 [6],highly resistant to HIV-1 infection
same,SIVMAC239 infection in cells expressing the cDNA,SIVMAC239,unaffected
same,HIV-1 restriction in transduced HeLa cells,HIV-1 [7]; pMIG vector,exhibited the same restriction
same,HIV-1 restriction in non-primate cells,HIV-1 [7]; rat fibroblasts (Rat2),functional
same,efficiency of inhibition of HIV-1 replication relative to TRIM5αrh,HIV-1NL-GFP,roughly fivefold more efficiently than TRIM5αrh
same,HIV-1 cDNA synthesis (Southern blot),HIV-1NL-GFP,inhibited HIV-1 cDNA synthesis
same,HIV-1 infection (GFP-positive cells by FACS),HIV-1NL-GFP,inhibited HIV-1 infection of TE671 cells
same,N-MLV replication defect (N-tropic restriction by endogenous TRIM5αhu) in cells expressing the construct,N-MLV [1],fully abrogated
same,interaction with TRIM5 orthologues,[8],interacted equally well; also recorded: associates with human TRIM5-α
same,association with GST-TRIM5αhu,TRIM5αhu,associated with TRIM5αhu
same,association of HIV-1 CA with TRIM5 orthologue,HIV-1 CA,associated
same,protection of human T cells from spreading HIV-1 infection,HIV-1 clone NL4-3,"protected from a spreading, cytopathic HIV-1 infection"
same,interaction with HIV-1 Gag,HIV-1 Gag,interacted equally well
sanglifehrin,HIV-1 infection of OMK cells on drug treatment of target cells,HIV-1 [2],permits HIV-1 to infect OMK cells at an efficiency similar to that of SIV
TRIMStop: construct in which TRIMCyp has been truncated with a stop codon replacing the first codon of the CypA domain (protein) MASRILVNIKEEVTCPICLELLTEPLSLDCGHSFCQACITANHKKSMPHQGERSCPLCRISYSSENLRPNRHLVNIVERLREVMLSPEEGQKVDHCAHHGEKLVLFCQQDGNVICWLCERSQEHRGHQTFLVEEVAQKYREKLQVALEMMRQKQKDAEKLEADVREEQASWKIQIQNDKTNIMAEFKKRRDILDCEESKELQNLEKEEKNILKRLVQSENDMVLQTQSVRVLISDLEHRLQGSVMELLQGVDGVIKRIEKVTLQNPKTFLNEKRRIFQTPDLKGTLQVFKEPTEVQRYWDAAAWDLVASA,HIV-1 infection / titre in cells expressing the cDNA,HIV-1 [6],no effect on HIV-1 titre
same,N-MLV replication defect (N-tropic restriction by endogenous TRIM5αhu) in cells expressing the construct,N-MLV [1],did not affect the capacity of TE671 cells to restrict N-MLV replication
same,interaction with TRIM5 orthologues,[8],as competent as TRIMCyp
same,association with GST-TRIM5αhu,TRIM5αhu,associated with TRIM5αhu
same,interaction with HIV-1 Gag,HIV-1 Gag,not able to interact with Gag
